Reference: patent publication US20220196636A1, “GRID OF RESPONSES INDICATING DRUG SENSITIVITY” (The Johns Hopkins University, priority 2019, published 2022)

What was measured:
Format in all cases: cell-based, human
[1] = tested on: hiPSC-CM monolayers; assay: GRIDS assay (pace-capture and spontaneous activity by optical mapping), monolayers
Method: (§1) Each EHS was placed in Tyrode's solution and stained with 10 μM di-4-ANEPPS for 10 min at 37° C. The EHS was rinsed several times in a dish with warm Tyrode's solution, and then immersed in Tyrode's solution containing 10 μM blebbistatin to suppress contraction. The dish was placed on a 37° C. heated stage for the duration of the experiment. At least 5 min after adding blebbistatin, the EHS was stimulated with a point electrode and optically mapped using a CMOS camera (MiCAM Ultima-L, SciMedia). The EHS was paced by 5 ms monophasic rectangular pulses at stepwise increasing rates starting at 0.5 Hz. For some samples, E-4031, chromanol 293B, nifedipine, Bay K 8644, BaCl2, or cromakalim was added for 7 min prior to mapping. Mapping data were analyzed using custom MATLAB scripts (details provided in Supplemental Information). AP durations at 30% and 80% repolarization (APD30 and APD80) were calculated from the optical voltage signal. For drug studies, APD and conduction velocity (CV) measurements at each concentration were plotted as a percentage of APD and CV measured at baseline, with no drug present.
(§2) To test the responsiveness of EHS to ion channel modulators, an assay referred to herein as “GRIDS” (grid of responses indicating drug sensitivity) was developed that characterizes the ability of a cardiac preparation to respond to pacing when exposed to a range of drug concentrations. This assay was used to compare EHS to age-matched monolayer cultures. APs of EHS and monolayers were evaluated at each drug concentration in the absence of pacing and when subjected to electrical stimulation at PCLs ranging from 2000 ms to 500 ms. By incorporating a range of pacing rates, GRIDS manifests the distinct sensitivities of different ion currents (Ravens and Wettwer, 1998) and their rate dependencies, and provides a “fingerprint” of drug sensitivity. Several types of responses were observed: no spontaneous activity (FIG. 6A,i), spontaneously generated APs when no pacing was applied (FIG. 6A,ii), extra APs in between pacing stimuli (FIG. 6A, iii), one AP generated for each pacing stimulus—i.e., 1:1 pace-capture (FIG. 6A, iv), and failure to maintain 1:1 pace-capture (lost beats) (FIG. 6A,v).
(§3) EHS were stained with 10 μM of the voltage-sensitive dye di-4-ANEPPS (Sigma-Aldrich Corp.) in Tyrode's solution for 10 minutes at 37° C. Afterwards, EHS were rinsed twice with Tyrode's and placed in a 35-mm dish filled with Tyrode's and 10 μM of the contraction inhibitor blebbistatin (Sigma-Aldrich Corp.). This dish was set on a stage heated to 37° C. and allowed to equilibrate for at least 5 minutes. Samples were point paced with at least 30 stimulus pulses at a range of cycle lengths, starting from 2000 ms and decreasing until the they lost capture. EHS were optically mapped during pacing using a 100×100 pixel CMOS camera (MiCAM Ultima-L, SciMedia, Costa Mesa, Calif.).
(§4) During drug studies, recordings at a range of pacing rates were taken at baseline (prior to the addition of drug) before replacing the solution in the dish with Tyrode's supplemented with blebbistatin and the lowest dose of drug studied. The sample was paced at the same range of rates and mapped 7 minutes after the addition of drug. Afterwards, the bath solution was replaced with Tyrode's with blebbistatin and the next lowest drug dose and the procedure repeated. This method was applied for all doses of each drug and, except where noted in the figures, only one drug was tested per sample. In these studies, we superfused EHS or monolayers with the following drugs: E-4031 (Tocris Bioscience), BaCl2 (Sigma-Aldrich Corp.), Chromanol 293B (Tocris Bioscience), Nifedipine (Tocris Bioscience), Bay K 8644 (Tocris Bioscience), and Cromakalim (Sigma-Aldrich Corp.).
(§5) Optical mapping data was analyzed using custom MATLAB scripts. […]

[2] = tested on: engineered heart slices (EHS) of hiPSC-CMs; assay: Optical mapping of action potential duration and conduction velocity, EHS; conditions: for change in APD80 compared to baseline, d201 EHS / change in conduction velocity compared to baseline, d201 EHS: paced at 1900 ms, n=4
Method: as §1, §3, §4
(§6) Optical mapping data was analyzed using custom MATLAB scripts. Recordings at each pixel were de-noised using a previously described method (Little and Jones, 2010) to regulate total signal variance and convolved with a 5×5 spatial Gaussian filter. Activation times were defined as the maximum of the derivative of membrane potential (dV/dt), which was calculated as previously described (Chartrand, 2011). Histograms of local conduction velocities for each EHS were fitted to a Gaussian curve and the mean of the curve was defined as the average conduction velocity (CV). To determine longitudinal and transverse CVs, a bimodal Gaussian curve was fitted to the local CVs. Action potential durations at 30 and 80 percent repolarization (APD30 and APD80) were determined for all local traces over the recording region for each EHS and fit with Gaussian curves to determine the mean value for each EHS, as described for CV measurements. For drug studies, average APD and CV measurements for each dose were normalized by average APD and CV measurements at baseline (without the drug).

[3] = tested on: hiPSC-CM monolayers; assay: Optical mapping of action potential duration and conduction velocity, monolayers
Method: as §1, §3, §4, §6

[4] = tested on: engineered heart slices (EHS) of hiPSC-CMs; assay: GRIDS assay (pace-capture and spontaneous activity by optical mapping), EHS
Method: as §1, §2, §3, §4, §5

[5] = tested on: monolayers of hiPSC-CMs; assay: GRIDS analysis applied to video-based contraction data, monolayers; conditions: n=6
Method: GRIDS analysis was applied to contraction data collected from monolayers of hiPSC-CMs. Each monolayer (cultured on a plastic coverslip) was placed in a 35-mm dish filled with cell culture medium and set on the stage of a microscope (LS720, Etaluma) fitted within a cell culture incubator. Monolayers were superfused with increasing concentrations of E-4031 (FIG. 15) or isoproterenol (FIG. 16), ranging from 0 to 10 μM, and paced at decreasing cycle lengths (increasing rates), ranging from 2000 ms to 500 ms, using a field electrode. At each drug dose and paced cycle length, a 30-second video of the contracting cells was recorded at a rate of 20-30 frames per second. The cellular contraction was quantified by subtracting one reference frame of video from all other frames, summing the pixels in each frame after subtraction, plotting the summed signal over time, and detecting the peaks in the signal.

[6] = tested on: engineered heart slices (EHS) of hiPSC-CMs; assay: Contraction measurements of EHS (change in EHS area during pacing)
Method: WT d24-78 EHS were placed in a 35-mm tissue culture mm dish filled with Tyrode's solution and maintained at 31±0.1° C. for the duration of the experiment. A section of each EHS was detached from the edge of the coverslip so that it could move freely. Each EHS was paced at 1 Hz, 1.5 Hz, and 2 Hz while the free region was imaged with a CCD camera. A custom MATLAB script was used to segment the image and calculate the change in EHS area over time, which was used as a measure of contraction.
Tyrode's solution was prepared by combining 1.8 mM CaCl2, 5 mM glucose, 5 mM HEPES, 1 mM MgCl2, 5.4 mM KCl, 135 mM NaCl, and 0.33 mM NaH2PO4 in ddH2O and adding NaOH to raise the pH to 7.4 (all chemicals from Sigma-Aldrich Corp.). EHS were placed in a 35-mm dish filled with Tyrode's solution and set on a stage heated to 31±0.1° C. (Warner Instruments, Hamden, Conn.). A section of each EHS was unhooked and allowed to move freely throughout the duration of the experiment. The EHS were allowed to equilibrate in Tyrode's for 5 minutes before the start of pacing with a point electrode. Each sample was paced for 1 minute at each of 3 cycle lengths (1000 ms, 666 ms, 500 ms), while the freely moving region was kept approximately vertical in the field of view and imaged at 4× magnification using a CCD camera (Swiftcam, Swift, Schertz, Tex.) at a rate of 14-17 fps with 320×256 pixel resolution. Samples also were imaged during pacing at 666 ms after the application of 1 μM isoproterenol (Sigma-Aldrich Corp.) for 2 minutes and after washout of the drug for 2 minutes. A pacing cycle length shorter than 1000 ms was applied in the presence of isoproterenol to overcome the increase in spontaneous rate in response to the drug. […] From this, the area of EHS was calculated in each image. The change in area from a fully relaxed state (reference frame, designated as 100% EHS area) was determined for each frame in the time series. […]

[7] = BaCl2 up to 150 μM, PCL 1000 ms, concentration-dependent
[8] = additional 1 μM Bay K 8644 after 1 μM cromakalim
[9] = chromanol 293B, all concentrations tested
[10] = chromanol 293B 1 μM to 60 μM, PCL 1000 ms
[11] = E-4031 50 nM to 10 μM, PCL 1500 ms, concentration-dependent

With `[Ba+2].[Cl-].[Cl-]` [BaCl2] the “pace-capture (GRIDS), monolayers” value ([1]; 500 μM BaCl2) was “could be partially pace-captured only at CLs of 1000 ms and less”, the “spontaneous beating rate, monolayers” value ([1]; 500 μM BaCl2) was “up to 1 Hz” and the “pace-capture (GRIDS), monolayers” value ([1]; 1 mM BaCl2) was “only a small fraction could be partially pace-captured at a CL of 500 ms”. The “spontaneous beating rate, nearly all monolayers” value ([1]; 1 mM BaCl2) was greater than 2 Hz, the “spontaneous rate, monolayers” value ([1]; BaCl2, no pacing, effect greater in monolayers than in EHS) was “increased in a concentration-dependent manner” and the “change in APD80, EHS” value [2, 7] was “increased APD80”. The “change in CV, EHS” value ([2]; BaCl2 up to 150 μM, PCL 1000 ms, statistically significant) was “decreased CV”, the “change in APD80, monolayers” value [3, 7] was “increased APD80” and the “change in CV, monolayers” value ([3]; BaCl2 up to 150 μM, PCL 1000 ms, did not reach statistical significance) was “decreased CV”. For the same compound, the “pace-capture (GRIDS), EHS” value ([4]; 1 mM BaCl2, 500 ms PCL) was “all of the EHS tested lost capture”, the “sensitivity (GRIDS), EHS compared with monolayers” value ([4]; BaCl2) was “less sensitive to BaCl2 than monolayers” and the “spontaneous rate, EHS” value ([4]; BaCl2, no pacing) was “increased in a concentration-dependent manner”. For the same compound, the “pace-capture (GRIDS), EHS” value ([4]; all concentrations of BaCl2) was “could be overdrive paced at 700 ms and 1000 ms PCL for all concentrations”.

For `COC(=O)C1=C(C)NC(C)=C([N+](=O)[O-])C1c1ccccc1C(F)(F)F` (centres unmarked) [Bay K 8644], the “change in CV, EHS” value ([2]; Bay K 8644 0.3 μM to 100 μM, concentration-dependent, n=3) was “decreased CV”, the “change in APD, EHS” value ([2]; Bay K 8644 0.3 μM to 100 μM, paced at 700 ms, concentration-dependent, n=3) was “increased APD” and the “maximum capture rate, EHS” value ([2]; Bay K 8644, n=3) was “decreased the maximum capture rate”. The “change in APD80 compared to baseline, d201 EHS” value [2, 8] was “decreased APD80” and the “change in conduction velocity compared to baseline, d201 EHS” value [2, 8] was “slowed conduction velocity”.

`CC1(C)Oc2ccc(C#N)cc2C(N2CCCC2=O)C1O` (centres unmarked) [cromakalim] was tested, and the “change in APD80 compared to baseline, d201 EHS” value ([2]; 1 μM cromakalim) was “decreased APD80” and the “change in conduction velocity compared to baseline, d201 EHS” value ([2]; 1 μM cromakalim) was “slowed conduction velocity”.

In the case of `CCS(=O)(=O)N(C)[C@H]1c2cc(C#N)ccc2OC(C)(C)[C@@H]1O` (racemic) [chromanol 293B], the “pace-capture (GRIDS), monolayers” value [1, 9] is reported as “could be pace-captured at all PCLs from 2000 ms down to 500 ms”, the “fraction of monolayers exhibiting spontaneous activity when no pacing was applied” value ([1]; chromanol 293B, concentrations up to 60 μM) is reported as “non-zero and constant at all concentrations except for 5 μM, when it was zero, and 60 μM, when all monolayers exhibited spontaneous activity” and the “change in APD80, EHS” value [2, 10] is reported as “no effect”. The “change in CV, EHS” value [2, 10] was “no effect”, the “change in APD80, monolayers” value [3, 10] was “no effect” and the “change in CV, monolayers” value [3, 10] was “no effect”. For the same compound, the “pace-capture (GRIDS), EHS” value [4, 9] was “could be pace-captured at all PCLs from 2000 ms down to 500 ms”.

For `CC(C)NCC(O)c1ccc(O)c(O)c1` (centres unmarked) [isoproterenol], the “spontaneous rate from contraction video (GRIDS), monolayers” value ([5]; isoproterenol 0 to 10 μM, no pacing or 2000 ms pacing) was “increased the spontaneous rate of the monolayers in a dose-dependent manner”, the “area change during contraction relative to baseline” value ([6]; 1 μM isoproterenol, PCL 666 ms (1.5 Hz), n=8) was 1.5±0.6 fold and the inotropic response ([6]; EHS) was “positive inotropic response”. The “area change during contraction relative to baseline after washout of the drug” value ([6]; after washout of 1 μM isoproterenol, PCL 666 ms, n=8) was 1.1±0.4 times the baseline value.

With `Cc1cccc(CCN2CCC(C(=O)c3ccc(NS(C)(=O)=O)cc3)CC2)n1` [E-4031] the “pace-capture from contraction video (GRIDS), monolayers” value ([5]; E-4031 0 to 10 μM, PCL 2000 ms to 500 ms, more pronounced at higher doses) was “began to lose capture as the pacing rate was increased”, the “loss of capture during pacing (GRIDS), monolayers” value ([1]; E-4031 greater than 50 nM (tested 1 nM to 10 μM), increasingly shorter PCLs) was “a greater fraction of monolayers than EHS lost capture” and the “change in APD80, EHS” value [2, 11] was “prolonged APD80”. For the same compound, the “change in CV, EHS” value [2, 11] was “slowed CV”, the “change in APD80, monolayers” value [3, 11] was “prolonged APD80” and the “change in CV, monolayers” value [3, 11] was “slowed CV”. The “sensitivity of pace-capture (GRIDS), EHS compared with monolayers” value ([4]; E-4031 greater than 50 nM (tested 1 nM to 10 μM), rapid pacing) was “lower sensitivity of EHS to E-4031”.
